Measured values from patent publication US4808589A, “Pyrimidone derivatives” (Smith Kline & French Laboratories Limited, priority 1982, dated 1989).

Test system: histamine H2 -receptors
Assay: inhibition of histamine-stimulated secretion of gastric acid from lumen-perfused stomachs of rats anaesthetised with urethane
Type: in vivo, rat
Conditions: i.v., lumen-perfused stomach of urethane-anaesthetised rats

Cc1ccc(Cc2cnc(CCSCc3csc(NC(=N)N)n3)[nH]c2=O)cn1.Cl.Cl.Cl.O [Example 1, 2-[2-(2-guanidino-4-thiazolylmethylthio)ethyl]-5-(6-methyl-3-pyridylmethyl)-4-pyrimidone trihydrochloride hydrate]
dose causing 50% inhibition of maximal acid secretion: less than 1 micromole kg^-1

Cc1ccc(Cc2cnc(CCSCc3ccc(CN(C)C)o3)[nH]c2=O)cn1 [Example 2, 2-[2-(5-dimethylaminomethyl-2-furanylmethylthio)ethyl]-5-(6-methyl-3-pyridyl-ylmethyl)-4-pyrimidone]
dose causing 50% inhibition of maximal acid secretion: less than 1 micromole kg^-1
